One may read the IC50 as the concentration that gives 50% inhibition.

For experiment [1], the system named is Colo205 tumor cells. Description: Method A: Methylene Blue Growth Inhibition Assay, Colo205. In kind it is cell-based. The conditions noted are these: Homo sapiens, COLO 205, 72 h, 3 days. On the procedure: (§1) Human breast (BT474) and head and neck (HN5) tumor cells were cultured in low glucose DMEM (Life Technologies 12320-032) containing 10% fetal bovine serum (FBS). Human colon tumor cells (Colo205) were cultured in DMEM (Invitrogen, 10564) containing 10% FBS. The SV40 transformed human mammary epithelial cell line HB4a was transfected with either human H-ras cDNA (HB4a r4.2) or the human c-ErbB2 cDNA (HB4a c5.2). The HB4a clones were cultured in RPMI containing 10% FBS, insulin (5 g/mL), hydrocortisone (5 g/mL), supplemented with the selection agent hygromycin B (50 g/mL). All lines were grown in a humidified incubator at 37° C. in 95% air, 5% CO2. Cells were harvested using trypsin/EDTA, counted using a haemocytometer, and plated in 100 μL of the appropriate media, at the following densities, in a 96-well tissue culture plate (Falcon 3075): BT474 10,000 cells/well, HN5 3,000 cells/well. The next day, compounds were diluted in DMEM containing […] gentamicin, at twice the final required concentration, from 10 mM stock solutions in DMSO. 100 μl/well of these dilutions were added to the 100 μL of media currently on the cell plates. Medium containing 0.6% DMSO was added to control wells. Compounds diluted in DMEM were added to all cell lines. The final concentration of DMSO in all wells was 0.3%. Cells were returned to the incubator (37° C., […]) for 3 days. Medium was then removed by aspiration. Cell biomass was estimated by staining cells with 90 μL/well methylene blue (Sigma M9140, 0.5% in 1:1 EtOH:H2O), and incubation at room temperature for at least 30 minutes. Stain was removed, and the plates rinsed by immersion in deionized H2O and air-dried. To release stain from the cells 100 μL of solubilization solution were added (1% N-lauroyl sarcosine, sodium salt, Sigma L5125, in PBS), and plates were shaken gently for about 30 minutes. Optical density at 620 nm was measured on a microplate reader. Percent inhibition of cell growth was calculated relative to vehicle-treated control wells. Concentration of compound that inhibits 50% of control cell growth (IC50) was interpolated using nonlinear regression (Levenberg-Marquardt) and the equation,
(§2) y=Vmax*(1−(x/(K+x)))+Y2, where “K” was equal to the IC50.

In experiment [2] the test system is HN5 tumor cells. Description: Method A: Methylene Blue Growth Inhibition Assay, HN5. In kind it is cell-based. As to conditions: Homo sapiens, 72 h, 3 days. On the procedure: as §1, §2
The target of the next experiment is T1, EGFR (Homo sapiens, UniProt P00533).
T1 construct: made in house; host or cells: baculovirus expression system
Description: EGFR substrate phosphorylation assay (HTRF). The conditions noted are these: Method (A): Enzyme Mix incubated with compound at 20° C. for 1 hr, reaction started by adding Substrate Mix. The experiment is classed as biochemical. The procedure, abridged: (§3)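 Baculovirus-expressed kinase (0.8 nM EGFR or 10 nM ErbB2 in enzyme mix) with Peptide C 0.8 μM and ATP 20 μM (substrate-mix levels), MOPS pH 7.5, MnCl2; 90 min, 20 °C, HTRF anti-phosphotyrosine. Method A adds 1 h enzyme–compound preincubation; B none. pIC50, final compound 0.00027–47.6 μM.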
A general note: In TR-FRET formats the signal depends on donor and acceptor labels being close together.

In experiment [3] the test system is BT474 tumor cells. Description: Method A: Methylene Blue Growth Inhibition Assay, BT474. The experiment is classed as cell-based. The conditions noted are these: Homo sapiens, BT-474, 72 h, 3 days. On the procedure:
as §1, §2

A further experiment has as its target T2, ErbB2 (Homo sapiens, UniProt P04626).
T2 construct: made in house; host or cells: baculovirus expression system
Description: ErbB-2 substrate phosphorylation assay (HTRF). The experiment is classed as biochemical. The procedure, abridged: as §3

Experiment [4] deals with BT474 tumor cells. Briefly: Method B: CellTiter-Glo Growth Inhibition Assay, BT474. The experiment is classed as cell-based. As to conditions: Homo sapiens, BT-474, 72 h, 3 days. On the procedure:
(§4) Human breast tumor cells (BT474) were cultured in RPMI, (Invitrogen, 22400) containing 10% fetal bovine serum (FBS). Human head and neck tumor cells (HN5) were cultured in low glucose DMEM (Invitrogen, 12320) containing 10% FBS. Human colon tumor cells (Colo205) were cultured in DMEM (Invitrogen, 10564) containing 10% FBS. Human melanoma cancer cells (SK-MEL-28) were incubated in DMEM (Invitrogen). All cell lines were maintained at 37° C. in a humidified 5% CO2, 95% air incubator. Cells were harvested using trypsin/EDTA, counted using a haemocytometer, and plated in 30 μL of the appropriate media described above, at the following densities, in a half-area, black-walled, 96-well tissue culture plate (Corning 3882): BT474 3,000 cells/well, HN5 500 cells/well, Colo205 3,000 cells/well, and SK-MEL-28 500 cells/well). The next day, compounds were diluted in DMEM containing […] gentamicin, from 10 mM stock solutions in DMSO. 30 μL/well of these dilutions were added to the 30 μL/well of media currently on the cell plates. Medium containing 0.6% DMSO was added to control wells. The final concentration of DMSO in all wells was 0.3%. Cells were incubated at 37° C., 5% CO2 for 3 days. Cell biomass was estimated using CellTiter-Glo® reagent (Promega G7571). Briefly, plates were removed from the incubator and allowed to equilibrate to rt for 30 minutes. 25-60 μL of CellTiter-Glo® reagent were added to each well of the treated cells and plates were shaken on an orbital plate shaker for 2 mins. Plates were incubated without shaking for 30 more mins and read in a luminometer with an integration time of 0.5 seconds per well. Percent inhibition of cell growth was calculated relative to vehicle-treated control wells. Concentration of compound that inhibits 50% of vehicle control cell growth (IC50) was interpolated using nonlinear regression (Levenberg-Marquardt) and the equation, y=V max*(1−(x/(K+x)))+Y2, where “K” was equal to the IC50.

Experiment [5] relates to Colo205 tumor cells. Description: Method B: CellTiter-Glo Growth Inhibition Assay, Colo205. In kind it is cell-based. As to conditions: Homo sapiens, COLO 205, 72 h, 3 days. The protocol: as §4
A general note: In ATP-based viability assays light output follows the ATP content of the culture.

Experiment [6] has as its system HN5 tumor cells. Description: Method B: CellTiter-Glo Growth Inhibition Assay, HN5. In kind it is cell-based. The conditions noted are these: Homo sapiens, 72 h, 3 days. The protocol:
as §4

Where [7] appears, read: Method (A): Enzyme Mix incubated with compound at 20° C. for 1 hr, reaction started by adding Substrate Mix.

Structures can show the parent of a compound that is named as a salt.

T2 sequence (P04626 23-1255): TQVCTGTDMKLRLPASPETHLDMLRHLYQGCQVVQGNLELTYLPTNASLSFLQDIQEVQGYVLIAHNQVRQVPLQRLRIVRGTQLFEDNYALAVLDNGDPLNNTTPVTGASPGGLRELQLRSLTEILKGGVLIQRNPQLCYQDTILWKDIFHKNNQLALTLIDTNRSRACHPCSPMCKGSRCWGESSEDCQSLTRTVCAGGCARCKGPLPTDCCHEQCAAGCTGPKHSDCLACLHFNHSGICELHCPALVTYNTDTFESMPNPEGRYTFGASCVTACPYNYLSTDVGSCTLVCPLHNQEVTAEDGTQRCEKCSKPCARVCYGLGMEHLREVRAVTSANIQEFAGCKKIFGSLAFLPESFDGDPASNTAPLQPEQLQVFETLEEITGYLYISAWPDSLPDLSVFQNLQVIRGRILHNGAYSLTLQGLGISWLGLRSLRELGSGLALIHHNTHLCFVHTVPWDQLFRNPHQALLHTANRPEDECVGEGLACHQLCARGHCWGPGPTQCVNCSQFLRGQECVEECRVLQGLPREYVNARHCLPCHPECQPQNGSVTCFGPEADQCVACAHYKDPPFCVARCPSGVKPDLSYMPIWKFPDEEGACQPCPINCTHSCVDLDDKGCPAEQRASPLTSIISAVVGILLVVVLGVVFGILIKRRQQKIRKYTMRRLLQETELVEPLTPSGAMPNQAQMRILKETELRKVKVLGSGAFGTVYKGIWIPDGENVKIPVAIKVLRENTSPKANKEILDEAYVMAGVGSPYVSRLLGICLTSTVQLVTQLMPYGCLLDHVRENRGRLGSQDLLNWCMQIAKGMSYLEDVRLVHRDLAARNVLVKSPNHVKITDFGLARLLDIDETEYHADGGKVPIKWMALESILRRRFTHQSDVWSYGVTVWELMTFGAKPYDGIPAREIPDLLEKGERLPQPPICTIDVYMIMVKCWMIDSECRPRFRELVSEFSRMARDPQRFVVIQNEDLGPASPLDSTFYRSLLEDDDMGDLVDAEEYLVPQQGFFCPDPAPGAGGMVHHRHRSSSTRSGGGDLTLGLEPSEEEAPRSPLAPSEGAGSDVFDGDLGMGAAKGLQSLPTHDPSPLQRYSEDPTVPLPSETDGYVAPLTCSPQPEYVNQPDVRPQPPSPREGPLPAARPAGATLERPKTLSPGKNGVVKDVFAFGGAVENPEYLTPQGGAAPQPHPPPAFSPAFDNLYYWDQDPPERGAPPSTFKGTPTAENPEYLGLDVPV
T1 sequence (P00533 25-1210): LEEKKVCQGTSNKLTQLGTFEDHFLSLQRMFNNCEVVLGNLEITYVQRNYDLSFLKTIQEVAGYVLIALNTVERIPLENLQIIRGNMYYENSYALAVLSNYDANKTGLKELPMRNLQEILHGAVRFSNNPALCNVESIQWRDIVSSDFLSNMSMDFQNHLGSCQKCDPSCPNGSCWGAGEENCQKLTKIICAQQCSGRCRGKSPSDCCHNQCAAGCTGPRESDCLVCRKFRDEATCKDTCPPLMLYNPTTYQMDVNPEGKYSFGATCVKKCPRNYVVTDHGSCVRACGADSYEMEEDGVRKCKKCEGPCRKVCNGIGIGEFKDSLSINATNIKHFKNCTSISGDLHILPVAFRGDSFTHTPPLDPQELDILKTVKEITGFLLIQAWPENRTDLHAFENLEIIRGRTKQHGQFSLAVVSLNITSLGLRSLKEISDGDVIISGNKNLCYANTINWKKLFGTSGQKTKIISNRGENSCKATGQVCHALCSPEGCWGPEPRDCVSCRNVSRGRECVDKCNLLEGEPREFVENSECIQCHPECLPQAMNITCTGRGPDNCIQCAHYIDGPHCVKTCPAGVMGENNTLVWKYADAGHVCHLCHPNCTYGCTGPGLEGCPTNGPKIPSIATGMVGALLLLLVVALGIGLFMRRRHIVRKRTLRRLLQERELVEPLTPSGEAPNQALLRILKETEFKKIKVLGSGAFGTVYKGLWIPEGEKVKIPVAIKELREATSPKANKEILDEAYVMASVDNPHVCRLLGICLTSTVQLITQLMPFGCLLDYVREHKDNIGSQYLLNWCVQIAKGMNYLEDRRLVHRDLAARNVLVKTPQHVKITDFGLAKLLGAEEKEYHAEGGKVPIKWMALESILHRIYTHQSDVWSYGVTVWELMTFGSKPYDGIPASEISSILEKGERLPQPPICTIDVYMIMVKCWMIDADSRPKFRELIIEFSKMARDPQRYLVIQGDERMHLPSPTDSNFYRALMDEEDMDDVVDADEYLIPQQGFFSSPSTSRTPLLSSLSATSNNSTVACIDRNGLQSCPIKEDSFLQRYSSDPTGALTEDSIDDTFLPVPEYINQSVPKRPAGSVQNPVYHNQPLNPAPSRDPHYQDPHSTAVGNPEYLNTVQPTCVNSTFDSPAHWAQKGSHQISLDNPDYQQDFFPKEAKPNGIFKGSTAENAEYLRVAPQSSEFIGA

Consider `Nc1nc(-c2cccc(NC(=O)c3c(F)cccc3F)c2)c(-c2ccnc(Nc3ccc4c(c3)CNCC4)n2)s1` [Example 21, N-(3-{2-Amino-5-[2-(1,2,3,4-tetrahydro-7-isoquinolinylamino)-4-pyrimidinyl]-1,3-thiazol-4-yl}phenyl)-2,6-difluorobenzamide], for which the IC50 in the experiment with Colo205 tumor cells [1] is 100 to 1000 nM; in the experiment with HN5 tumor cells [2], below 100 nM; on EGFR it was below 100 nM; in the experiment on BT474 tumor cells [3], below 100 nM; on ErbB2 (setting [7]) it was below 100 nM.
Turning to `CN(C)CCOc1ccc(Nc2nccc(-c3sc(N)nc3-c3cccc(NC(=O)C4CCCCC4)c3)n2)cc1Cl` [Example 61], the IC50 in the experiment on Colo205 tumor cells [1] is 100 to 1000 nM; with HN5 tumor cells [2], below 100 nM; on EGFR, below 100 nM; with BT474 tumor cells [3], 100 to 1000 nM; at ErbB2 (setting [7]), below 100 nM.
Take `O=C(Nc1cccc(-c2ncsc2-c2ccnc(Nc3ccc4c(c3)CNCC4)n2)c1)c1c(F)cccc1F` [Example 91, 2,6-Difluoro-N-(3-{5-[2-(1,2,3,4-tetrahydro-7-isoquinolinylamino)-4-pyrimidinyl]-1,3-thiazol-4-yl}phenyl)benzamide]: the IC50 in the experiment with BT474 tumor cells [4] is below 100 nM; on EGFR, below 100 nM; in the experiment on Colo205 tumor cells [5], 100 to 1000 nM; on ErbB2 (setting [7]), below 100 nM; in the experiment on HN5 tumor cells [6], below 100 nM.
On to `Nc1nc(-c2cccc(NC(=O)c3c(F)cccc3F)c2)c(-c2ccnc(Nc3cccc(CCS(N)(=O)=O)c3)n2)s1` [Example 8], for which the IC50 was below 100 nM in the experiment on BT474 tumor cells [4]; below 100 nM on EGFR; 100 to 1000 nM in the experiment with Colo205 tumor cells [5]; below 100 nM at ErbB2 (setting [7]); below 100 nM in the experiment on HN5 tumor cells [6].
For the compound `CCN(CC)CCOc1cccc(Nc2nccc(-c3scnc3-c3cccc(NC(=O)Cc4cccs4)c3)n2)c1` [Example 82, N-[3-(5-{2-[(3-{[2-(Diethylamino)ethyl]oxy}phenyl)amino]-4-pyrimidinyl}-1,3-thiazol-4-yl)phenyl]-2-(2-thienyl)acetamide], the IC50 in the experiment with BT474 tumor cells [4] is 100 to 1000 nM; on EGFR, below 100 nM; in the experiment on Colo205 tumor cells [5] it was 100 to 1000 nM; at ErbB2 (setting [7]), below 100 nM; in the experiment with HN5 tumor cells [6], 100 to 1000 nM.
For `Nc1nc(-c2cccc(NC(=O)c3c(F)cccc3F)c2)c(-c2ccnc(Nc3cccc(F)c3)n2)s1` [Example 7], the IC50 with BT474 tumor cells [4] was below 100 nM; on EGFR it was below 100 nM; in the experiment with Colo205 tumor cells [5], above 1000 nM; at ErbB2 (setting [7]) it was below 100 nM; with HN5 tumor cells [6] it was below 100 nM.
On to `Nc1nc(-c2cccc(NC(=O)Cc3cccs3)c2)c(-c2ccnc(Nc3cccc(F)c3)n2)s1` [Example 64, N-[3-(2-Amino-5-{2-[(3-fluorophenyl)amino]-4-pyrimidinyl}-1,3-thiazol-4-yl)phenyl]-2-(2-thienyl)acetamide], for which the IC50 in the experiment with BT474 tumor cells [4] is 100 to 1000 nM; at EGFR, below 100 nM; in the experiment with Colo205 tumor cells [5], above 1000 nM; at ErbB2 (setting [7]), 100 to 1000 nM; in the experiment with HN5 tumor cells [6], 100 to 1000 nM.
Consider `O=C(Cc1cccs1)Nc1cccc(-c2ncsc2-c2ccnc(Nc3ccc4c(c3)OCC(=O)N4)n2)c1` [Example 85, N-[3-(5-{2-[(3-Oxo-3,4-dihydro-2H-1,4-benzoxazin-7-yl)amino]-4-pyrimidinyl}-1,3-thiazol-4-yl)phenyl]-2-(2-thienyl)acetamide hydrochloride], for which the half-inhibitory concentration (IC50) is 100 to 1000 nM in the experiment on BT474 tumor cells [4]; below 100 nM on EGFR; above 1000 nM with Colo205 tumor cells [5]; below 100 nM at ErbB2 (setting [7]); 100 to 1000 nM with HN5 tumor cells [6].
`O=C1COc2ccc(Nc3nccc(-c4scnc4-c4cccc(NC(=O)c5cc(F)ccc5F)c4)n3)cc2N1` [Example 99, 2,5-Difluoro-N-[3-(5-{2-[(3-oxo-3,4-dihydro-2H-1,4-benzoxaziN-6-yl)amino]-4-pyrimidinyl}-1,3-thiazol-4-yl)phenyl]benzamide hydrochloride]: the IC50 in the experiment with BT474 tumor cells [4] was 100 to 1000 nM; on EGFR, below 100 nM; in the experiment on Colo205 tumor cells [5], above 1000 nM; on ErbB2 (setting [7]), below 100 nM; in the experiment with HN5 tumor cells [6] it was 100 to 1000 nM.
For the compound `Nc1nc(-c2cccc(NC(=O)c3c(F)cccc3F)c2)c(-c2ccnc(Nc3ccc4c(c3)OCC(=O)N4)n2)s1` [Example 9, hydrochloride], the IC50 in the experiment on BT474 tumor cells [4] was below 100 nM; on EGFR it was below 100 nM; in the experiment with Colo205 tumor cells [5], above 1000 nM; on ErbB2 (setting [7]), below 100 nM; in the experiment with HN5 tumor cells [6], below 100 nM.
Turning to `CN(C)CCOc1ccc(Nc2nccc(-c3scnc3-c3cccc(NC(=O)c4c(F)cccc4F)c3)n2)cc1Cl` [Example 89], the IC50 with BT474 tumor cells [4] is below 100 nM; on EGFR, below 100 nM; in the experiment on Colo205 tumor cells [5], 100 to 1000 nM; at ErbB2 (setting [7]), below 100 nM; with HN5 tumor cells [6], below 100 nM.
Consider `Cc1nc(-c2cccc(NC(=O)c3c(F)cccc3F)c2)c(-c2ccnc(Nc3cccc(F)c3)n2)s1` [Example 101, 2,6-Difluoro-N-[3-(5-{2-[(3-fluorophenyl)amino]-4-pyrimidinyl}-2-methyl-1,3-thiazol-4-yl)phenyl]benzamide], for which the IC50 in the experiment on BT474 tumor cells [4] is below 100 nM; on EGFR it was below 100 nM; with Colo205 tumor cells [5], above 1000 nM; on ErbB2 (setting [7]) it was below 100 nM; in the experiment with HN5 tumor cells [6], below 100 nM.
For the compound `Nc1nc(-c2cccc(NC(=O)c3c(F)cccc3F)c2)c(-c2ccnc(Nc3ccc4c(c3)NC(=O)CO4)n2)s1` [Example 20, N-[3-(2-Amino-5-{2-[(3-oxo-3,4-dihydro-2H-1,4-benzoxaziN-6-yl)amino]-4-pyrimidinyl}-1,3-thiazol-4-yl)phenyl]-2,6-difluorobenzamide], the IC50 with BT474 tumor cells [4] was below 100 nM; on EGFR, below 100 nM; in the experiment on Colo205 tumor cells [5], above 1000 nM; at ErbB2 (setting [7]) it was below 100 nM; in the experiment on HN5 tumor cells [6], below 100 nM.
Turning to `CN(C)C1Cc2ccc(Nc3nccc(-c4scnc4-c4cccc(NC(=O)Cc5cccs5)c4)n3)cc2C1` (centres unmarked) [Example 83, N-{3-[5-(2-{[2-(Dimethylamino)-2,3-dihydro-1H-inden-5-yl]amino}-4-pyrimidinyl)-1,3-thiazol-4-yl]phenyl}-2-(2-thienyl)acetamide], the IC50 in the experiment on BT474 tumor cells [4] is below 100 nM; on EGFR, below 100 nM; with Colo205 tumor cells [5], 100 to 1000 nM; at ErbB2 (setting [7]) it was below 100 nM; in the experiment with HN5 tumor cells [6], 100 to 1000 nM.
As to `O=C(Nc1cccc(-c2ncsc2-c2ccnc(Nc3cccc(F)c3)n2)c1)c1c(F)cccc1F` [Example 88], the IC50 in the experiment with HN5 tumor cells [2] is below 100 nM; at EGFR, 100 to 1000 nM; with BT474 tumor cells [3], 100 to 1000 nM; against ErbB2 (Method (B): Substrate Mix added to compound first, reaction started by adding Enzyme Mix) it was 100 to 1000 nM.

The values are drawn from patent US20110098296A1, “Thiazole And Oxazole Kinase Inhibitors” (priority 2007, published 2011).
